# Measurements reported in patent publication US20240390334A1, “COMPOSITIONS AND METHODS FOR MITIGATING ALCOHOL LIVER DISEASE” (Research Foundation of the City University of New York, priority 2021, published 2024).
# Key:
# [1] = biological target: T1, human RARβ2 receptors (Homo sapiens, UniProt P10826); details: as described in Lund et al. (2005, J. Med. Chem., 48, 7517-7519); cited from earlier work
# T1 sequence (P10826 1-448 isoform P10826-2): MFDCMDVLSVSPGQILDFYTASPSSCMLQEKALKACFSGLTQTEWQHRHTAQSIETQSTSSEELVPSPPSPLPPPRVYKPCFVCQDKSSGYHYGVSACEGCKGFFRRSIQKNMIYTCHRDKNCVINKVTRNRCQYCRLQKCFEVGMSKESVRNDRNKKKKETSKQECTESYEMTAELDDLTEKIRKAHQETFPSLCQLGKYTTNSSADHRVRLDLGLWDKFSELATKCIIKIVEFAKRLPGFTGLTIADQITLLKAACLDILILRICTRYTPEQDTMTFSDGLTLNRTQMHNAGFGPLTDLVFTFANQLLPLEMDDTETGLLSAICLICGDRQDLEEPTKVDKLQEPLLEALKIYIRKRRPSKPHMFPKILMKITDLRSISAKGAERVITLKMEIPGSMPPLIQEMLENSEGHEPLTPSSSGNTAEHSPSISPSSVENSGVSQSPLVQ
# [2] = system: ethanol-fed mice; test: Hepatic steatosis (histopathology, Oil Red O, hepatic triglycerides) in Lieber-DeCarli liquid ethanol diet model of early ALD; format: in vivo, mouse (male C57BL/6J); details: EtOH-AC261 vs EtOH mice, 10 mg/kg/day, 3 weeks
# Description: (§1) Liquid Ethanol Diet. Male C57BL/6J mice (8-9-weeks-old) (n=30) were purchased from Jackson Laboratory. Animals were housed in standard cages with 2-mice per cage and fed a standard vivarium chow (rodent diet #2014, Harlan-Teklad, Madison, WI). After acclimation to liquid feeding, mice were switched to the Lieber-DeCarli-liquid alcohol diet for 3 weeks using the following groups: 1) Control diet-fed mice (aka Pair-fed (PF), n=6), 2) Pair-fed mice+RARβ2 specific agonist AC261066 (Tocris #4046), at 10 mg/kg/day [Pair-fed+AC261, (n=4)] (PF-AC), 3) Alcohol-treated (5% ethanol (EtOH) v/v plus vehicle [0.1% DMSO], n=10) (EtOH), and iv) 4) EtOH+AC261, [10 mg/kg/day], n=10)] (EtOH-AC).
# [3] = system: ethanol-fed mice; test: Plasma AST and ALT activity (liver injury markers) in liquid ethanol diet model; format: in vivo, mouse (male C57BL/6J); details: EtOH-AC261 vs EtOH mice; 10 mg/kg/day, 3 weeks
# Description: as §1
# [4] = system: ALDH1A1; test: Hepatic ALDH1A1 protein by western blot and IHC in liquid ethanol diet model; format: in vivo, mouse (male C57BL/6J); details: EtOH-AC vs EtOH mice
# Description: as §1
# (§2) AC261066 and ethanol modulate centrilobular protein expression of ALDH1A1, CYP2E1, and Oxidative Stress. ALDH1A1 is one of the rate-limiting enzymes in the oxidation of retinaldehyde to RA and a key contributor to hepatic RA synthesis, as mice lacking ALDH1A1 show reduced hepatic levels of RA. […] Therefore, hepatic protein levels of ALDH1A1 were measured next, as it was the only ALDH1A isoform to increase in EtOH compared to PF mice. […] Therefore, given that high levels of ALDH1A1 were specifically detected only in zone 2-3, centrilobular regions, hepatic CYP2E1 protein levels were next measured by western blot and IHC, and by IHC, 4-HNE, as an indirect readout of oxidative stress. […]
# [5] = system: CYP2E1; test: Hepatic CYP2E1 protein by western blot and IHC in liquid ethanol diet model; format: in vivo, mouse (male C57BL/6J); details: EtOH-AC261066 vs EtOH mice
# Description: as §1, §2
# [6] = system: 4-HNE; test: Hepatic 4-HNE IHC (indirect readout of oxidative stress) in liquid ethanol diet model; format: in vivo, mouse (male C57BL/6J); details: EtOH-AC261 vs EtOH mice
# Description: as §1, §2
# [7] = system: genes involved in de novo lipogenesis and fatty acid β-oxidation; test: RNA-seq of hepatic transcripts of lipid metabolism genes in liquid ethanol diet model; format: in vivo, mouse (male C57BL/6J)
# Description: as §1
# The mechanism by which AC261066 functions in lipid metabolism, including de novo lipogenesis and fatty acid β-oxidation in the liver, was assessed.
# [8] = Tolerability and general observations (food intake, body weight, blood alcohol, hepatic drug level, hepatotoxicity, fibrosis) in liquid ethanol diet study; format: in vivo, mouse (male C57BL/6J)
# Description: as §1
# [9] = 5% ETOH-fed mice with vs without AC261066
# [10] = 5% ETOH-fed plus AC261066 vs ETOH-fed mice without AC261066
smiles,measurement,setting,value
CCCCCCCCc1ccc(-c2ccc(C(=O)O)cc2)cc1 [AC55649],isoform selectivity of agonism at human RARβ2 receptors,[1],highly isoform-selective agonists
CCCCOCCOc1nc(-c2ccc(C(=O)O)c(F)c2)sc1C [AC261066],reduction in Oil red O lipid-staining,[2],41%
same,reduction in hepatic triglycerides,[2],35%
same,reduction in macrovesicular steatosis,[2]; 5% EtOH diet,72%
same,reduction in microvesicular steatosis,[2]; 5% EtOH diet,82%
same,reduction in plasma activity of ALT,[3],~30%
same,reduction in plasma activity of AST,[3],~30%
same,"reduction in zone 2-3, centrilobular ALDH1A1 protein immunoreactivity",[4]; IHC,40%
same,reduction in ALDH1A1 total protein,[4]; western blot,32%
same,reduction in zone 2-3 centrilobular CYP2E1 protein levels,[5]; IHC,~39%
same,reduction in hepatic CYP2E1 protein levels,[5]; total protein,approximately 31%
same,decrease in hepatic levels of 4-HNE,[6],36%
same,decrease in hepatic levels of 4-HNE (first value),[6],33%
same,EtOH-induced increase in hepatic Fasn mRNA level,[7]; [9],eliminated or attenuated
same,EtOH-induced increase in hepatic Mogat1 mRNA level,[7]; [9],eliminated or attenuated
same,EtOH-induced increase in hepatic Pparg mRNA level,[7]; [9],eliminated or attenuated
same,hepatic CPT1-α transcripts,[7]; [10],increased
same,hepatic Ppara transcripts,[7]; [10],increased
same,"changes to hepatic steatosis, triglyceride levels, fibrosis, or liver injury","[8]; PF+AC261 mice (pair-fed, no ethanol), 10 mg/kg/day, 3 weeks",No evidence was found of changes
same,daily food intake and body weights,"[8]; all groups, entire length of the study",no group differences
same,hepatoxicity or fibrosis,"[8]; concomitant administration of AC261 with EtOH, 3 weeks",no evidence
same,effect of EtOH on hepatic AC261 levels,"[8]; concomitant administration with EtOH, 3 weeks",did not adversely impact
same,isoform selectivity of agonism at human RARβ2 receptors,[1],highly isoform-selective agonists
